Experimental findings from patent publication US8431365B2, “β1,3-N-acetyl-D-galactosamine transferase protein, nucleic acid encoding the same and method of examining canceration using the same” (National Institute of Advanced Industrial Science and …, priority 2003, dated 2013) are described below.

Type in all cases: biochemical
Assay [1] concerns the target T1, human G34 protein (Homo sapiens, UniProt Q8NCR0).
T1 construct: made in house; host or cells: Sf21 insect cells (baculovirus, pFBIF-G34A)
T1 sequence (Q8NCR0 36-500): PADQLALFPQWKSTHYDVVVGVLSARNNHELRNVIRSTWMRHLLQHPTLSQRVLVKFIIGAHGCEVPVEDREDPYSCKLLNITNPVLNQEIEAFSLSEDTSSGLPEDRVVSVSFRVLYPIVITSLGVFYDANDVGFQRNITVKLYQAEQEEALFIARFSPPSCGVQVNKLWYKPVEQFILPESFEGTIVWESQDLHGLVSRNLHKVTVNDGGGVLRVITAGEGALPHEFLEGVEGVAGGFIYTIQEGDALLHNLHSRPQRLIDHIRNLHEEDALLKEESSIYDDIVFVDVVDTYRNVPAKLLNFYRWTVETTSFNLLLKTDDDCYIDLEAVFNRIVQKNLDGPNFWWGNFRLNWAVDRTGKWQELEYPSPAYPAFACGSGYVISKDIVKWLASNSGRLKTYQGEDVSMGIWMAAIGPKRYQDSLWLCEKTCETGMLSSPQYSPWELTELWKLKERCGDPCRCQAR
Nature of the assay: RI assay (divalent ion requirement).

Another assay concerns the target T2, mouse G34 (Mus musculus, UniProt Q8BG28).
T2 construct: made in house; host or cells: 293T cells transfected with pFLAG-CMV3-mG34A; purified from the supernatant
T2 sequence (Q8BG28 35-504): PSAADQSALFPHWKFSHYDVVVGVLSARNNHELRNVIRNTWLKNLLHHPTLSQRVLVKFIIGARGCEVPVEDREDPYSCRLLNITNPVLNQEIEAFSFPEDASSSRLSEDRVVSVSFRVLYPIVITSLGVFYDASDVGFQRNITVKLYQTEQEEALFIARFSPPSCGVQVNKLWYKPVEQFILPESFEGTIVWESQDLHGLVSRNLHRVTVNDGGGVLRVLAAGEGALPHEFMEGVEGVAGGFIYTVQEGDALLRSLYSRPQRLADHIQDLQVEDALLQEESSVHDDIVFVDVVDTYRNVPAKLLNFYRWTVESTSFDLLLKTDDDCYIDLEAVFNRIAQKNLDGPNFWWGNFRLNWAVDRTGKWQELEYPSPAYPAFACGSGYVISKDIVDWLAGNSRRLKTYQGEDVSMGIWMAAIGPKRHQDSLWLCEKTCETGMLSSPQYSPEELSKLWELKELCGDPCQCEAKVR
Nature of the assay: Substrate specificity of β1,3-N-acetylgalactosamine transferase activity of mouse G34. The settings on record: for % (radioactivity relative to Bz-β-GlcNAc set to 100%): 10 nmol substrate, HEPES pH 7.4, MnCl2 10 mM, 37° C. 16 hours. From the text:
The following reaction system was used for examining mouse G34 for its substrate specificity in its β1,3-N-acetylgalactosamine transferase activity. In the reaction solutions shown below, each of the following was used at […] as an “acceptor substrate”: pNp-α-Gal, oNp-β-Gal, Bz-α-GlcNAc, Bz-β-GlcNAc, Bz-α-GalNAc, pNp-β-GalNAc, pNp-α-Glc, pNp-β-Glc, pNp-β-GlcA, pNp-α-Fuc, pNp-α-Xyl, pNp-β-Xyl, pNp-α-Man, lactoside-Bz, Lac-ceramide, Gal-ceramide, Gb3, globoside, Gal-β1-4GalNAc-α-pNp, Galβ1-3GlcNAc-β-Bz, GlcNAc-β1-4-GlcNAc-β-Bz, core1-pNp, core2-pNp, core3-pNp and core6-pNp (all purchased from SIGMA).
Each reaction solution was prepared as follows (final concentrations in parentheses): each substrate (10 nmol), HEPES (N-[2-hydroxyethyl]piperazine-N′-[2-ethanesulfonic acid]) (pH 7.4, 14 mM), MnCl2 (10 mM), Triton CF-54 (trade name) (0.3%), UDP-GalNAc (2 mM) and […] (40 nCi) were mixed and supplemented with 5 μl mouse G34 enzyme solution, followed by dilution with H2O to a total volume of 20 μl.
(§1) The above reaction mixtures were each reacted at 37° C. for 16 hours. After completion of the reaction, 200 μl H2O was added and each mixture was lightly centrifuged to obtain the supernatant. The supernatant was passed through a Sep-Pak plus C18 Cartridge (Waters), which had been washed once with 1 ml methanol and twice with 1 ml H2O and then equilibrated, to allow the substrate and product in the supernatant to adsorb to the cartridge. After washing the cartridge twice with 1 ml H2O, the adsorbed substrate and product were eluted with 1 ml methanol. The eluate was mixed with 5 ml liquid scintillator ACSII (Amersham Biosciences) and measured for the amount of radiation with a scintillation counter (Beckman Coulter).
The results thus measured were compared assuming that the radioactivity obtained using Bz-β-GlcNAc as a substrate was set to 100% (Table 11).

For assay [2], the target named is T1, human G34 protein. The assay is described as follows: Acceptor substrate specificity to oligosaccharides. The settings on record: for % (radioactivity relative to Bz-β-GlcNAc set to 100%): 50 nmol substrate, HEPES pH 7.4, MnCl2 10 mM, 37° C. 2 hours.
Excerpt: The following reaction system was used for examining the acceptor substrate specificity to oligosaccharides. The acceptor substrates used were pNp-α-Gal, oNp-β-Gal, Bz-α-GlcNAc, Bz-β-GlcNAc, Bz-α-GalNAc, pNp-β-GalNAc, pNp-α-Glc, pNp-β-Glc, pNp-β-GlcA, pNp-α-Fuc, pNp-α-Xyl, pNp-β-Xyl, pNp-α-Man, lactoside-Bz, Lac-ceramide, Gal-ceramide, paragloboside, globoside, Gal-β1-4 GalNAc-α-pNp, Gal-β1-3 GlcNAc-β-pNp, GlcNAc-[…] GlcNAc β-Bz, pNp-core1 (Gal-β1-3 GalNAc-α-pNp), pNp-core2 (Gal-β1-3 (GlcNAc-β1-6) GalNAc-α-pNp), pNp-core3 (GlcNAc-β1-3 GalNAc-α-pNp) and pNp-core6 (GlcNAc-β1-6 GalNAc-α-pNp). “Lac” represents a D-lactose residue.
Each reaction solution (final concentrations in parentheses) was prepared by adding each substrate (50 nmol), HEPES buffer (pH 7.4, 14 mM), Triton CF-54 (trade name) (0.3%), UDP-GalNAc (2 mM), MnCl2 (10 mM), UDP-[^3H]GlcNAc and 5 μl G34 enzyme solution, followed by dilution with H2O to a total volume of […].
as §1, with “2” for “16”
The results thus measured were compared assuming that the radioactivity obtained using Bz-β-GlcNAc as a substrate was set to 100% (see Table 5).

Where [3] appears, read: concentration 2.5 mM, acceptor Bz-β-GlcNAc, HEPES pH 7.4.
The mark [4] stands for this setting: concentration 5 mM, acceptor Bz-β-GlcNAc, HEPES pH 7.4.
The mark [5] stands for this setting: concentration 10 mM, acceptor Bz-β-GlcNAc, HEPES pH 7.4.
[6] abbreviates: concentration 20 mM, acceptor Bz-β-GlcNAc, HEPES pH 7.4.

SMILES strings stand for the structures.

For `[Cl-].[Cl-].[Mg+2]` [Mg, MgCl2], the DPM on human G34 protein [1] (setting [3]) stood at 4800.03 DPM; at human G34 protein [1] (setting [4]), 8692.15 DPM; on human G34 protein [1] (setting [5]), 8980.56 DPM; on human G34 protein [1] (setting [6]), 6726.32 DPM; at human G34 protein [1] (concentration 40 mM, acceptor Bz-β-GlcNAc, HEPES pH 7.4), 5592.88 DPM.
Regarding `[Cu+2]` [Cu], the “Mn-induced enhancement of the activity on addition of Cu” value on human G34 protein [1] is “completely eliminated”.
For `[Cl][Mn][Cl]` [Mn, MnCl2], the DPM at human G34 protein [1] (setting [3]) turned out to be 7260.09 DPM; at human G34 protein [1] (setting [4]) it was 8270.23 DPM; on human G34 protein [1] (setting [5]), 7748.77 DPM; at human G34 protein [1] (setting [6]), 7515.86 DPM.
Turning to `CC(=O)N[C@H]1[C@H](OCc2ccccc2)O[C@H](CO)[C@@H](O)[C@@H]1O` [Bz-β-GlcNAc], on mouse G34, the “increase in radioactivity” value was “largest increase in radioactivity” and the “% (radioactivity relative to Bz-β-GlcNAc set to 100%)” value was determined as 100%. For the same compound, at human G34 protein [2], the “% (radioactivity relative to Bz-β-GlcNAc set to 100%)” value amounted to 100%.
`CC(=O)N[C@H]1[C@H](OCc2ccccc2)O[C@H](CO)[C@@H](O[C@@H]2O[C@H](CO)[C@@H](O)[C@H](O)[C@H]2NC(C)=O)[C@@H]1O` [GlcNAcβ1-4GlcNAc-β-Bz]: the “% (radioactivity relative to Bz-β-GlcNAc set to 100%)” value was determined as 10% at mouse G34 and 29% at human G34 protein [2].
With `CC(=O)N[C@H]1[C@H](OC[C@H]2O[C@H](Oc3ccc([N+](=O)[O-])cc3)[C@H](NC(C)=O)[C@@H](O[C@@H]3O[C@H](CO)[C@H](O)[C@H](O)[C@H]3O)[C@H]2O)O[C@H](CO)[C@@H](O)[C@@H]1O` [core2-pNp, Gal-β1-3-(GlcNAc-β1-6)GalNAc-α-pNp], at mouse G34, the “% (radioactivity relative to Bz-β-GlcNAc set to 100%)” value is given as 25%. In addition, on human G34 protein [2], the “increase in radioactivity” value is “largest increase in radioactivity” and the “% (radioactivity relative to Bz-β-GlcNAc set to 100%)” value is listed as 185%.
`O=C(O)CN(CCN(CC(=O)O)CC(=O)O)CC(=O)O` [EDTA] showed a DPM at human G34 protein [1] (pH 7.4) of 149.32 DPM.
Take `CC(=O)NC1C(OC2C(O)C(CO)OC(Oc3ccc([N+](=O)[O-])cc3)C2NC(C)=O)OC(CO)C(O)C1O` (stereo not drawn) [core3-pNp, GlcNAc-β1-3-GalNAc-α-pNp]: the “% (radioactivity relative to Bz-β-GlcNAc set to 100%)” value is recorded as 14% on mouse G34 and 8% on human G34 protein [2].
For the compound `CC(=O)N[C@H]1[C@@H](Oc2ccc([N+](=O)[O-])cc2)O[C@H](CO[C@@H]2O[C@H](CO)[C@@H](O)[C@H](O)[C@H]2NC(C)=O)[C@H](O)[C@@H]1O` [core6-pNp, GlcNAc-β1-6-GalNAc-α-pNp], the results for the “% (radioactivity relative to Bz-β-GlcNAc set to 100%)” value at mouse G34 and at human G34 protein [2] were 18% and 19%, respectively.
As for `[Cl-].[Cl-].[Co+2]` [Co, CoCl2], the DPM came out at 10979.99 DPM on human G34 protein [1] (concentration 2.5 mM); 9503.91 DPM at human G34 protein [1] (concentration 5 mM); 10979.99 DPM at human G34 protein [1] (concentration 10 mM); 8070.47 DPM on human G34 protein [1] (concentration 20 mM); 7854.92 DPM at human G34 protein [1] (concentration 40 mM).
For `O=[N+]([O-])c1ccc(O[C@@H]2O[C@H](CO)[C@@H](O)[C@H](O)[C@H]2O)cc1` [pNp-β-Glc], the “% (radioactivity relative to Bz-β-GlcNAc set to 100%)” value at mouse G34 came to 12%.
